One molecule from paper PMC9602571, “Discovery of a Dual SENP1 and SENP2 Inhibitor” (International Journal of Molecular Sciences, 2022) can be followed below.

Series [1] addresses T1, UCHL1 (Homo sapiens, UniProt P09936).
T1 construct: purchased SignalChem U22-30H
T1 sequence (P09936 1-223): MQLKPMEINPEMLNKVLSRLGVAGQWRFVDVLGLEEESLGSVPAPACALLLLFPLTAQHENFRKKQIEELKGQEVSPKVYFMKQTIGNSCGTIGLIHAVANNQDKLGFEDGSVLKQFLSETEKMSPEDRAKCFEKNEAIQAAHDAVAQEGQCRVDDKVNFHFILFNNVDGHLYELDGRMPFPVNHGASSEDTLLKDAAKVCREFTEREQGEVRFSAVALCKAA
Kind of series: UCHL1 activity assay, Ubiquitin-AMC substrate. In kind it is biochemical. The settings on record: n = 2. The procedure: (§1) IC50 measurements were conducted at Reaction Biology Corporation, Malvern, PA, USA, with two replications using 10 concentrations starting at 200 μM with three-fold dilution. Curve fits were performed where the enzyme activities at the highest concentration of compounds were less than 65%. UCHL1 II was used as a control inhibitor. The procedure was performed analogous to the fluorogenic SENP2 assay described in 3.3.2. using the UCHL1 enzyme (SignalChem Cat# U22-30H) and Ubiquitin-AMC substrate (Enzo Cat# BML-SE211-0025). The final reaction conditions contained 0.2 nM UCHL1 and 100 nM Ubiquitin-AMC.

The target of series [2] is T2, Ataxin-3 (Homo sapiens, UniProt P54252).
T2 construct: purchased BPS 80399
T2 sequence (P54252 whole entry): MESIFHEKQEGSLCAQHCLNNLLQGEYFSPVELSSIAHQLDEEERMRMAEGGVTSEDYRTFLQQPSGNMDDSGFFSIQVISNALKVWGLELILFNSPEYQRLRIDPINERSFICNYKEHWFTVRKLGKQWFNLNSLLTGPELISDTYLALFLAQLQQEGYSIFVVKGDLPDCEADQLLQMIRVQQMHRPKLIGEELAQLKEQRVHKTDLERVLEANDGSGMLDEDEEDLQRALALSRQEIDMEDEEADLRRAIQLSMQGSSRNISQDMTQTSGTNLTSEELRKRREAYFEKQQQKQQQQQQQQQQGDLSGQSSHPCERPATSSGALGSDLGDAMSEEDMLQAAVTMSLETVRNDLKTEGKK
Kind of series: Ataxin-3 activity assay, Ubiquitin-AMC substrate. The class given is biochemical. The settings on record: n = 2. The procedure: as §1, with “the Ataxin-3” for “the UCHL1”, “enzyme (BPS” for “enzyme (SignalChem”, “Cat# 80399)” for “Cat# U22-30H)”, “contained 500” for “contained 0.2”, “nM Ataxin-3” for “nM UCHL1”

Series [3] concerns the target T3, SENP1 (Homo sapiens, UniProt Q9P0U3).
T3 construct: Human recombinant, His6-SENP1 Catalytic Domain; His6 (N); purchased Boston Biochem (Bio-Techne AG) E-700
T3 sequence (Q9P0U3 450-613 limits assumed): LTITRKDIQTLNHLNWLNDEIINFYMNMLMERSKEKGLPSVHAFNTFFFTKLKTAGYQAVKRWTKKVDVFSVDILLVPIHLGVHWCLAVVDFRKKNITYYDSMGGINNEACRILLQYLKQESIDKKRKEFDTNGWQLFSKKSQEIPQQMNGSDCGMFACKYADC
The series is described as follows: SENP1 endopeptidase activity with proSUMO3 (SDS gel). The class given is biochemical. The note with it: inhibitor 200 µM, proSUMO3 5 µM, 37 °C, 1 h. On the procedure: Measurements were performed using six different inhibitor concentrations starting at 200 μM of 11 with three-fold dilution. Human recombinant, His6-SENP1 Catalytic Domain (Boston Biochem Cat# E-700, Bio-Techne AG, Zug, Switzerland) was prepared in reaction buffer (50 mM HEPES, 150 mM NaCl 0.5 mM EDTA, 1 mM DTT, pH 7.5, 0.01% CHAPS) as 555 nM solution. A 20 mM compound DMSO stock-solution (1.1 µL) was added to the freshly prepared 555 nM enzyme solution (98.9 µL). […] Then, 50 µM proSUMO3 (5 µL) was added to the freshly prepared enzyme inhibitor solution (45 µL) and incubated for 60 min at 37 °C and subsequently the reaction was stopped by adding 4 × Laemmli-Buffer (16.7 µL) and denaturing the protein at 100 °C for 30 min. Those solutions (10 µL) were loaded on a casted 15% sodium dodecyl sulfate polyacrylamide gel and separated on a Mini-PROTEAN Tetra Cell (Bio-Rad, Hercules, CA, USA). After SDS-PAGE gel electrophoresis separation, the gels were stained with staining solution Bio-Safe Coomassie Brilliant Blue G-250 (BioRad) for 60 min. De-staining was performed with 40% (v/v) methanol, 10% (v/v) glacial acetic acid, 50% (v/v) Milli-Q water until protein bands became visible.

Series [4] concerns the target T3, SENP1. Kind of series: Photo crosslinking experiments with SENP1. In kind it is binding. The note with it: competitor 400 µM, probe 56 200 µM. On the procedure: A buffer exchange of the commercially available 6 × His-SENP1 Protein (Boston Biochem Cat# E-700) to a 50 mM HEPES, 150 mM NaCl; 0.5 mM EDTA, 1 mM DTT, pH 7.5 was performed. A total of 200 μM of the photo affinity probe 56 with or without competitor molecule 11 (400 μM) was incubated in 10 uM SENP1 for 30 min at 0 °C. Subsequently, the mixtures were irradiated in a Proma UV exposure unit equipped with four 8 Watt lamps (Hitachi FL8BL-8, ~350 nm) for 30 min at 0 °C. Then, 50 µL of the crosslinked proteins were mixed with freshly prepared click mix solution (50 μL; 1 mM CuSO4, 1 mM TCEP, 100 uM THPTA from a 5 mM DMSO stock, dissolved in Milli-Q Water) and a 10 mM stock solution of azide fluor 545 (1 μL) and incubated at 0 °C for 14 h. […] Protein samples for SDS-PAGE were first prepared in 1 × Laemmli sample buffer (diluted from 4 × Laemmli sample buffer (ROTI®Load), and subsequently denatured at 100 °C for 15 min. After SDS-PAGE gel electrophoresis separation, the fluorescence was visualized (Ex. 520 nm, Em. 575 nm) on the SDS PAGE gel using ImageQuant^TM 4000 LAS (GE Healthcare, Chicago, IL, USA). Secondly, the gels were stained with Bio-Safe Coomassie Brilliant Blue G-250 (BioRad) for 60 min. De-staining was performed with 40% (v/v) methanol, 10% (v/v) glacial acetic acid, 50% (v/v) Milli-Q water until protein bands became visible.

pIC50: −log10 of the molar value.

Take `O=C(Cn1nnc(-c2ccccc2)n1)N1c2ccccc2NC(=O)C12CCCC2` [Compound 11, 1′-[2-(5-Phenyl-2H-1,2,3,4-tetrazol-2-yl)acetyl]-3′,4′-dihydro-1′H-spiro[cyclopentane-1,2′-quinoxalin]-3′-one]: the melting point is 237 °C (dec.). Moreover, in series [1], the pIC50 is 4.11. The same molecule showed a pIC50 in series [2] of 4.17. The “inhibition of SENP1 endopeptidase activity (proSUMO3 maturation)” value in series [3] is “full inhibition”. Also, the “fluorescently labelled band of SENP1 in competition with photo probe 56” value in series [4] is on record as “significantly decreased”.

A word on the pIC50: it is −log10 of the IC50, conventionally taken in molar units. The low end stands for a high IC50, the high end for a low IC50. As a reminder, the melting point is the temperature, or range, at which the solid turns liquid.
